Test results reported in article PMC11761228, “Cinnamic Acid Compounds (p-Coumaric, Ferulic, and p-Methoxycinnamic Acid) as Effective Antibacterial Agents Against Colistin-Resistant Acinetobacter baumannii” (Antibiotics, 2025).
Converted amounts (≈) assume the structure as drawn.

Tests used:
[1] = test system: COLR-Ab isolates; assay: BD Phoenix100 automated antibiotic susceptibility testing; format: cell-based, Acinetobacter baumannii; parameters: key to Susceptibility category: Resistant; Intermediate; Susceptible; details: for MIC: Acinetobacter baumannii; for Susceptibility category: CLSI criteria
Protocol: Five COLR-Ab strains isolated from various clinical specimens were obtained between 2016 and 2017 from the Microbiology Department of the Central Laboratory of Akdeniz University Hospital, Antalya, Turkey. All isolates were isolated from tracheal samples obtained from patients hospitalized in the intensive care unit. The stock solutions of A. baumannii strains were cultivated in blood agar (Becton Dickinson, Franklin Lakes, NJ, USA) at 35 ± 2 °C for 18–24 h. Identification of the colonies was confirmed using Matrix-Assisted Laser Desorption/Ionization Time-of-Flight (MALDI-TOF) mass spectroscopy (Bruker Daltonics, Bremen, Germany). […] The automated system was evaluated according to the criteria of the CLSI. […] E. coli NCTC 13846 COL was used as a quality control strain in broth dilution method to verify the MIC values. The isolates were stored at −80 °C until use and sub-cultured on blood agar for in vitro testing.

[2] = test system: COLR-Ab isolates; assay: Broth microdilution MIC determination (CLSI); format: cell-based, Acinetobacter baumannii
Protocol: The broth microdilution method, as recommended by the CLSI, was used to determine the MIC values of COL, p-CA, FA, and p-MCA [46]. The serial two-fold dilutions of antimicrobial agents were prepared using 96-well microplates with cation-adjusted Mueller-Hinton Broth (MHB) (CAMHB, Merck KGaA, Darmstadt, Germany). Firstly, an initial concentration of 8192 µg/mL was chosen to determine the MIC values of all compounds against COLR-Ab isolates. […] The bacterial suspension was adjusted to the 0.5 McFarland standard and added to each well (final bacterial concentration: 5 × 10^5 colony forming units [CFU]/mL). Additionally, the microdilution plates included controls for bacterial growth (CAMHB + bacteria) and medium sterility (CAMHB). Microdilution plates were incubated at 35 ± 2 °C for 18–24 h. The MIC values were calculated by comparing the growth densities in the antibiotic-containing wells to those in the control wells used in each test set. Each experiment was conducted in triplicate.

[3] = test system: Escherichia coli NCTC 13846; assay: Broth microdilution MIC, quality control strain; format: cell-based; details: E. coli NCTC 13846 quality control strain
Protocol: (§1) Five COLR-Ab strains isolated from various clinical specimens were obtained between 2016 and 2017 from the Microbiology Department of the Central Laboratory of Akdeniz University Hospital, Antalya, Turkey. All isolates were isolated from tracheal samples obtained from patients hospitalized in the intensive care unit. The stock solutions of A. baumannii strains were cultivated in blood agar (Becton Dickinson, Franklin Lakes, NJ, USA) at 35 ± 2 °C for 18–24 h. Identification of the colonies was confirmed using Matrix-Assisted Laser Desorption/Ionization Time-of-Flight (MALDI-TOF) mass spectroscopy (Bruker Daltonics, Bremen, Germany). […] The automated system was evaluated according to the criteria of the CLSI. The colistin broth disk elution method was used to test COL sensitivity, and all five isolates selected for the study were resistant to COL. E. coli NCTC 13846 COL was used as a quality control strain in broth dilution method to verify the MIC values. The isolates were stored at −80 °C until use and sub-cultured on blood agar for in vitro testing.
The broth microdilution method, as recommended by the CLSI, was used to determine the MIC values of COL, p-CA, FA, and p-MCA [46]. […] The MIC values were calculated by comparing the growth densities in the antibiotic-containing wells to those in the control wells used in each test set. […]

[4] = test system: biofilm formation of COLR-Ab isolates; assay: Antibiofilm activity, microtiter plate-based crystal violet technique; format: cell-based, Acinetobacter baumannii; details: all COL doses except 1 μg/mL for COLR-Ab4; COLR-Ab1, 3, 4, 5
Protocol: Following the incubation period, the microtiter plates were gently washed three times with PBS. Subsequently, 200 µL of methanol (99%) was added to each well and left for 15 min. The methanol was then removed from the wells and the plate was left to dry for approximately 30 min, thus completing the fixation process. Then, 200 µL of 0.1% CV solution was added to each well and incubated for 20 min at room temperature. The plates were washed three times with PBS in order to remove the excess stain, and then 150 μL of 95% ethanol was added to the wells and incubated for 20 min. The optical density of the CV-stained biofilm was measured at a wavelength of 575 nm using a Thermo Labsystem Multiscan Spectrum microtiter plate reader (Thermolabsystem, Chantilly, VA, USA). Each experiment was conducted in triplicate.
In order to evaluate the antibiofilm activity of COL, p-CA, FA, and p-MCA, a 96-well microtiter plate-based CV test was carried out, with minor modifications to the methods previously described by Kırmusaoglu (2019) and Haney et al. (2021). Briefly, bacteria were inoculated into MHB medium containing 0.2% glucose and incubated at 37 °C for 16–20 h. The bacterial suspension, adjusted to 0.5 McFarland using the same medium, was prepared to a final concentration of 5 × 10^5 CFU/mL and inoculated into 96-well flat-bottom microtitre plates. […] Wells containing only medium were used as negative controls (MHB), and wells containing only medium and bacteria were used as growth controls. The plates were then incubated overnight at 35 ± 2 °C in a normal atmosphere. Following incubation, CV staining procedures were carried out in a similar manner to Section 4.4.
The antibiofilm index was calculated using the following formula:% Biofilm Mass = (100 × Sample OD575/Growth Control OD575)

[5] = test system: COLR-Ab isolates; assay: Colistin broth disk elution method; format: cell-based, Acinetobacter baumannii; parameters: key to Susceptibility category: Resistant; Intermediate; Susceptible
Protocol: as §1

[6] = test system: A. baumannii isolates; details: A. baumannii isolates, combination with COL; cited from earlier work
[7] = COLR-Ab1, BD Phoenix 100 system
[8] = COLR-Ab2, BD Phoenix 100 system
[9] = COLR-Ab3, BD Phoenix 100 system
[10] = COLR-Ab4, BD Phoenix 100 system
[11] = COLR-Ab5, BD Phoenix 100 system
[12] = COLR-Ab1, colistin broth disk elution
[13] = COLR-Ab2, colistin broth disk elution
[14] = COLR-Ab3, colistin broth disk elution
[15] = COLR-Ab4, colistin broth disk elution
[16] = COLR-Ab5, colistin broth disk elution

Compound | MIC [1, 7] [µg/mL] | MIC [1, 8] [µg/mL] | MIC [1, 9] [µg/mL] | MIC [1, 10] [µg/mL] | MIC [1, 11] [µg/mL] | Susceptibility category [1, 7] | Susceptibility category [1, 8] | Susceptibility category [1, 9] | Susceptibility category [1, 10] | Susceptibility category [1, 11] | Combination effect with COL in words [6] | further results
CCN[C@@H]1C[C@H](N)[C@@H](O[C@H]2OC(CN)=CC[C@H]2N)[C@H](O)[C@H]1O[C@H]1OC[C@](C)(O)[C@H](NC)[C@H]1O [NET, Netilmicin] | 1 (≈ 2.1 µM) | > 4 | > 4 | > 4 | > 4 | S | R | R | R | R |  | 
C[C@@H](O)[C@H]1C(=O)N2C(C(=O)O)=C(S[C@@H]3CN[C@H](C(=O)N(C)C)C3)[C@H](C)[C@H]12 [MEM, Meropenem] | ≤ 0.125 | > 8 | > 8 | > 8 | > 8 | S | R | R | R | R |  | 
colistin |  |  |  |  |  |  |  |  |  |  |  | MIC ([2]; COLR-Ab1): 32 µg/mL; MIC ([2]; COLR-Ab2): 64 µg/mL; MIC ([2]; COLR-Ab3): 64 µg/mL; MIC ([2]; COLR-Ab4): 128 µg/mL; MIC ([2]; COLR-Ab5): 64 µg/mL; MIC [3]: 4 µg/mL; Inhibition of biofilm formation [4]: 19.7–75.2%; MIC [5, 12]: > 4 µg/mL; Susceptibility category [5, 12]: R; MIC [5, 13]: > 4 µg/mL; Susceptibility category [5, 13]: R; MIC [5, 14]: > 4 µg/mL; Susceptibility category [5, 14]: R; MIC [5, 15]: > 4 µg/mL; Susceptibility category [5, 15]: R; MIC [5, 16]: > 4 µg/mL; Susceptibility category [5, 16]: R
O=C(O)c1ccc(O)c(O)c1 [protocatechuic acid] |  |  |  |  |  |  |  |  |  |  | Synergistic activity | 
NCC[C@H](O)C(=O)N[C@@H]1C[C@H](N)[C@@H](O[C@H]2O[C@H](CN)[C@@H](O)[C@H](O)[C@H]2O)[C@H](O)[C@H]1O[C@H]1O[C@H](CO)[C@@H](O)[C@H](N)[C@H]1O [AMK, Amikacin] | ≤ 4 | > 16 | > 16 | > 16 | > 16 | S | R | R | R | R |  | 
O=C(O)/C=C/c1ccc(O)c(O)c1 [caffeic acid] |  |  |  |  |  |  |  |  |  |  | Synergistic activity | 
CNC(C)C1CCC(N)C(OC2C(N)CC(N)C(OC3OCC(C)(O)C(NC)C3O)C2O)O1 (stereo not shown) [GEN, Gentamicin] | ≤ 1 | > 4 | > 4 | > 4 | > 4 | S | R | R | R | R |  | 
C[C@@H](O)[C@H]1C(=O)N2C(C(=O)O)=C(SCCN=CN)C[C@H]12 [IPM, Imipenem] | ≤ 0.25 | > 8 | 4 (≈ 13.4 µM) | > 8 | > 8 | S | R | I | R | R |  | 
O=C(O)c1cc(O)c(O)c(O)c1 [gallic acid] |  |  |  |  |  |  |  |  |  |  | Synergistic activity | 
